Measured values taken from paper PMC9742639, “Inhibition of glycogen synthase kinase-3-beta (GSK3β) blocks nucleocapsid phosphorylation and SARS-CoV-2 replication” (Molecular Biomedicine, 2022).

Key:
[1] = test system: SARS-CoV-2 variant B.1.617.2 (delta); type: cell-based
[2] = test system: SARS-CoV-2 variant BA.1 (omicron); type: cell-based

CSc1ccc(-n2cnc3ccc(-c4nnc(CCc5cccc(C#N)c5)o4)cc32)cc1 [P-0717632]
effect on viral titres, B.1.617.2 [1]: reduced intracellular viral titres | effect on viral titres, BA.1 [2]: reduced intracellular viral titres
